“Also recorded” adds a separate entry of the source.
Key:
[1] = test system: UCB CD34+ cells; test: Actin polymerization in CD34+ cells; format: cell-based, human; settings: in the presence of C3a
Description: Exposure of UCB CD34^+ cells to a low dose of SDF-1 promotes actin polymerization which is enhanced by the presence of C3a.
In another set of experiments, we attempted to elucidate the molecular mechanisms by which C3a enhances the responsiveness of hematopoietic cells to an SDF-1 gradient. […] However, we observed that actin polymerization of CD34^+ cells to a low dose of SDF-1 was enhanced in the presence of C3a.

[2] = test system: human umbilical vein endothelial cells; test: Adhesion of UCB CD34+ cells to endothelial cells; format: cell-based
[3] = test system: murine BM-derived Sca-1+ cells; test: Homing of primed murine Sca-1+ cells into BM of lethally irradiated syngeneic mice; format: in vivo; settings: Sca-1+ cells preincubated with C3a 30 min, 16 hrs after transplant
Description: FIG. 16A-B—Panel A: C3a primes homing of murine CFU-GM and CFU-S into BM of lethally irradiated mice. Murine BM-derived Sca-1^+ cells (10^5/mouse) were transplanted into lethally irradiated syngeneic mice. At 16 hrs after transplant, cells were recovered from the femurs of transplanted animals and assayed in secondary cultures for the number of clonogenic CFU-GM (left panel) and, after transplant into secondarily irradiated animals, for the number of day-12 CFU-S (right panel). Data are pooled from three independent experiments using 10 mice each/tested cells (n=30). * p<0.0001. No HSPC cells were recovered from the marrow cavities of control animals (irradiated, not transplanted) Panel B: C3a primes homing of human CB and BM CD34^+ cells into the BM of lethally irradiated NOD/SCID mice. At 16 hrs after transplantation of human CD34^+ cells (10^6/animal), mice were sacrificed and CFU-GM colonies were assayed in methylcellulose cultures. Data are pooled from independent experiments preformed on three different CB- and three different BM samples using 2-4 mice/tested cell sample. p<0.0001.
As final proof of our hypothesis and to test whether the primed cells home better to BM, we primed murine BM-derived Sca-1^+ and human BM- and UCB-derived CD34^+ cells with C3a before their transplantation into lethally irradiated mice. […]

[4] = test system: UCB MNC and CD4+45RA+ T-cells; test: Transmigration of UCB MNC and CD4+/45RA+ T-cells to SDF-1 without and with C3a priming; format: cell-based, human; settings: C3a 1 μg/ml 30 minutes; SDF-1 10 ng/ml, 3 h
Protocol: FIG. 30A-B—UCB MNC migration to SDF-1. Lymphocytes from SSC/FSC plots were gated to determine the number of transmigrating UCB CD45^+CD4^+ T-cells. A. The total number of transmigrated lymphocytes migrating without and with C3a priming prior to exposure to 10 ng/ml SDF-1 (mean±SD). […] All staining patterns of labeled cells were compared to cells incubated with APC- and PerCP-isotype antibodies to set negative quadrants gates.
FIG. 31A-B—UCB CD4^+45RA T-cell migration to SDF-1. […] A. Percentage of selected CD4^+/45RA^+ T-cells transmigrating without and with C3a priming prior to exposure to 10 ng/ml SDF-1 (mean±SD). B. CD45^+CD4^+ T-cells were observed only in gate P3 in contrast to the transmigration of MNC.
Cord blood MNC (FIG. 30A-B) isolated by Ficoll density gradient centrifugation or naïve CD4^+/45RA^+ T-cells (FIG. 31A-B below), isolated from MNC fractions (Miltenyi), were incubated in DMEM media with 1% human serum albumin or exposed to complement protein C3a (1 μg/ml) for 30 minutes at RT. […] Transmigrated cells were counted (Z Series Coulter counter) and stained with anti-CD4-PerCP anti-CD45-APC antibodies for 20 min in PBS buffer with 10% FBS prior to flow cytometric analyses on a […] in […], cells were fixed in 2% paraformaldehyde prior to acquisition. […]

C3a: 77 amino acid residue protein derived from the human complement C3a precursor; SEQ ID NO:1
actin polymerization of CD34+ cells to a low dose of SDF-1 [1]: enhanced
adhesion of UCB CD34+ cells to human umbilical vein endothelial cells ([2]; C3a): increases adhesion
adhesion of CD34+ cells ([2]; combination of C3a priming and SDF-1): only to a slight increase
homing of murine CFU-GM and CFU-S into BM [3]: home more efficiently; also recorded: homed better; also recorded: primes homing
migration of UCB MNC or naïve CD45+ CD4+ cells to a low SDF-1 gradient [4]: prime migration of a portion of the cell populations
